US20260216138A1, “IDENTIFICATION OF OTUD7B INHIBITOR 7BI AND ITS APPLICATION IN REDUCING GROWTH OF NSCLC AND LEUKEMIA CELLS” (The University of North Carolina at Chapel Hill, priority 2023, published 2026)
Entries after “also recorded” stand apart in the source; their conditions may differ.

Assays:
[1] = test system: OTUD7B-induced GβL deubiquitination; test: In-cell GβL ubiquitination assay (Ni-NTA pulldown, HEK293 cells); format: cell-based; conditions: HEK293 cells transfected with DNA constructs, compound for 16 hrs; listed as #19
Experimental: FIGS. 2A-2L show results of validation for OTUD7B small molecule inhibitors in cells. (A-D) IB analyses of WCL from indicated NSCLC cells treated with […] of indicated compounds for 16 hrs. (E, F) IB analyses of WCL from either A549 (E) or HEK293 (F) cells treated with indicated doses of compound #19 for 16 hrs. (G) IB analyses of Ni-NTA pulldowns and WCL from HEK293 cells transfected with indicated DNA constructs. Where indicated, cells were treated with […] of indicated compounds for 16 hrs before cell collection. (H-L) Quantifications of cell viability by MTT assays in A549 cells treated with indicated doses of indicated compounds for 72 hrs. Error bars were calculated as mean+/−SD, n=3. *p<0.05 (one-way ANOVA test).

OTUD7B = biological target: T1, OTUD7B (Homo sapiens, UniProt Q6GQQ9); test: Ubiquitin-AMC assay, OTUD7B; format: biochemical; conditions: 50 μM 7Bi, 300 nM OTUD7B, 2 uM ubiquitin-AMC
T1 construct: OTUD7B (residues 56-446); GST (N, cleaved yes); made in house; host or cells: E. coli BL21-Codon Plus (DE3)-RIL
T1 sequence (Q6GQQ9 56-446): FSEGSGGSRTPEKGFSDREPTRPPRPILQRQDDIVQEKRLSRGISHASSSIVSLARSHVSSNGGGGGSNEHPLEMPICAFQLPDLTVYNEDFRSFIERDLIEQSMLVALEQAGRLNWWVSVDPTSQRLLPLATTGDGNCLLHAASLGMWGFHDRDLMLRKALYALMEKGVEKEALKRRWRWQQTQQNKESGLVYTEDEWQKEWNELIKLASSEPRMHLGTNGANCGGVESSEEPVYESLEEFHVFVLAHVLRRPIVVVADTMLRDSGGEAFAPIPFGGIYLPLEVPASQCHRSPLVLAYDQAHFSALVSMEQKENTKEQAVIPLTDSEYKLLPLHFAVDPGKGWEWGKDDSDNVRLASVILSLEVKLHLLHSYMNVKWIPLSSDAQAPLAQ
Experimental: 50 μM 7Bi were incubated with 300 nM OTUD7B (residues 56-446), 10 μM OTUD7A (residues 1-462), 200 nM USP21 (residues 196-565), or 500 nM USP9X (residues 1551-1970) in reaction buffer (20 mM HEPES pH=8.0, 200 mM NaCl, 0.25 mg/mL BSA and 0.005% Tween-20) for 5 min at room temperature. Then, 2 uM ubiquitin-AMC was added to start the reaction. The fluorescence emission data was collected at an excitation wavelength of 355 nm and emission wavelength of 460 nm every 3 min. Reactions were completed three times to generate the error bars.

USP9X = biological target: T2, USP9X (Homo sapiens, UniProt Q93008); test: In vitro USP9X deubiquitination assay, K11-linked di-ub cleavage; format: biochemical
T2 construct: USP9X (residues 1551-1970); GST (N, cleaved yes); made in house; host or cells: E. coli BL21-Codon Plus (DE3)-RIL
T2 sequence (Q93008 1551-1970): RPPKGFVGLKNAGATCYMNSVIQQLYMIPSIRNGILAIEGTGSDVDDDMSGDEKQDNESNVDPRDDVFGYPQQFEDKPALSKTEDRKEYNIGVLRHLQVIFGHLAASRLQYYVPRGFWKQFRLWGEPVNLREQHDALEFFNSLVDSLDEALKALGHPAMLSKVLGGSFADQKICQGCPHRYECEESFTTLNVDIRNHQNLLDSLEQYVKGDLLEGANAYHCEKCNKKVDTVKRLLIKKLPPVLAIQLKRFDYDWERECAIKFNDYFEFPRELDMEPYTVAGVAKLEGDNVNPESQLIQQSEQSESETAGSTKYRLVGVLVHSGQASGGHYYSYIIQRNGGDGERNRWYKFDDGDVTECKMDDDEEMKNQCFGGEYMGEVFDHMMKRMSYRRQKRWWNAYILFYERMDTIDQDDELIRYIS
Description: OTUD7B (residues 56-446), OTUD7A (residues 1-462), USP21 (residues 196-565), and USP9X (residues 1551-1970) proteins were expressed in E. Coli BL21-Codon Plus (DE3)-RIL cells. Through an N-terminal GST tag, the DUBs were purified by affinity chromatography using glutathione sepharose 4B (GS4B) resin. Following the liberation of the DUB from the GST tag. the DUBs were subjected to size exclusion chromatography (SEC). To form the K11-linked di-ub, individual ubiquitins (K11R-substituted donor Ub and ΔGG acceptor ubiquitin) were purified and fluorescently-labeled on an N-terminal cysteine using either Cy3- (donor) or Cy5-maleimide (acceptor). The different ubiquitins were then added to a mixture containing UBA1, UBE2S, and MgATP to form di-ub. After an overnight incubation at room temperature, UBE2S was removed by cation-exchange chromatography and the di-ub was purified by SEC. These proteins were used to monitor DUB activity in the presence or absence of the various inhibitors. The inhibitors were incubated with DUBs in a reaction buffer (20 mM Hepes pH=8.0, 200 mM NaCl, 0.25 mg/mL BSA and 0.005% Tween-20) for 5 min at room temperature and then 0.5 uM fluorescently-labeled di-ub (K11-linked) was added to start the reaction. 5×SDS-PAGE loading buffer was used to quench the reaction at the indicated time point. […] Mono-ubiquitin was quantified to generate an IC50 value. […]

- inhibition of USP9X (USP9X): failed to inhibit
Structure (SMILES): Cc1cc(NC(=O)c2cnn(C)c2C(=O)Nc2cc(C)nn2C2CCCC2)n(C2CCCC2)n1 [7Bi]
- blocking OTUD7B-induced GβL deubiquitination in cells [1]: partially blocked OTUD7B-induced GβL deubiquitination; also recorded: able to block OTUD7B-mediated GβL deubiquitination in cells
- inhibition of hydrolysis of ubiquitin-AMC by OTUD7B (OTUD7B): efficiently inhibited hydrolysis of ubiquitin-AMC
